For this test, the system named is cancer cells. As to the kind of experiment: MTS cell growth inhibition assay (72 hours). It counts as cell-based. A digest of the protocol:
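Growth inhibition read as formazan absorbance at 492 nm after 4 h MTS/PMS, following 72 h compound exposure at 37 °C in 1% FBS DMEM (cells pre-seeded 18 h). IC50 = 50% absorbance reduction; inhibition graded in bands.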

Setting [1] is: Homo sapiens, DLD-1, 72 h, DLD-1 cells, read-out: DLD-1 MTS 72 hr at 10 μM.
Where [2] appears, read: Homo sapiens, KATO III, 72 h, KATO III cells, read-out: KATO III MTS 72 hr at 10 μM.
Setting [3] is: Homo sapiens, MDA-MB-231, 72 h, MDA-MB-231 cells, read-out: MDA-MB-231 MTS 72 hr at 10 μM.
Where [4] appears, read: Homo sapiens, NCI-H1299, 72 h, NCI-H1299 cells, read-out: NCI-H1299 MTS 72 hr at 10 μM.
Setting [5] is: PaCa-2, 72 h, PACA-2 cells, read-out: PACA-2 MTS 72 hr at 10 μM.

13 molecules from US8273754B2, “Substituted 1H-pyrazolo[3,4-D]pyrimidine-6-amine compounds” (ArQule, Inc., priority 2008, dated 2012) can be followed below.

Where two headings read alike, the source gives them in different places.

For the molecule `Nc1nc(NC2Cc3ccccc3N(S(=O)(=O)c3cccc(NC(=O)Nc4c(F)cccc4C(F)(F)F)c3)C2)c2cn[nH]c2n1` (stereo not shown) [Compound 204, 1-[3-({3-[(6-amino-1H-pyrazolo[3,4-d]pyrimidin-4-yl)amino]-3,4-dihydroquinolin-1(2H)-yl}sulfonyl)phenyl]-3-[2-fluoro-6-(trifluoromethyl)phenyl]urea], the inhibition at 10 µM was below 50% under setting [1]; below 50% under setting [2]; below 50% under setting [3]; below 50% under setting [4]; 50 to 79% under setting [5].
In the case of `Cc1cccc(NC(=O)Nc2cccc(S(=O)(=O)N3CC(Nc4nc(N)nc5[nH]ncc45)Cc4ccccc43)c2)c1` (stereo not shown) [Compound 205, 1-[3-({3-[(6-amino-1H-pyrazolo[3,4-d]pyrimidin-4-yl)amino]-3,4-dihydroquinolin-1(2H)-yl}sulfonyl)phenyl]-3-(3-methylphenyl)urea], the inhibition at 10 µM under setting [1] fell in the range of 50 to 79%; the inhibition at 10 µM under setting [2] is above 79%; the inhibition at 10 µM under setting [3] fell in the range of 50 to 79%; the inhibition at 10 µM under setting [4] was below 50%; the inhibition at 10 µM under setting [5] was above 79%.
As to `Nc1nc(NC2Cc3ccccc3N(S(=O)(=O)c3cccc(NC(=O)Nc4c(F)cc(Br)cc4F)c3)C2)c2cn[nH]c2n1` (stereo not shown) [Compound 206, 1-[3-({3-[(6-amino-1H-pyrazolo[3,4-d]pyrimidin-4-yl)amino]-3,4-dihydroquinolin-1(2H)-yl}sulfonyl)phenyl]-3-(4-bromo-2,6-difluorophenyl)urea], the inhibition at 10 µM by setting is: under setting [1], below 50%; under setting [2], 50 to 79%; under setting [3], below 50%; under setting [4], below 50%; under setting [5], 50 to 79%.
As for `Nc1nc(NC2Cc3ccccc3N(S(=O)(=O)c3cccc(NC(=O)Nc4ccc(F)c(F)c4)c3)C2)c2cn[nH]c2n1` (stereo not shown) [Compound 207, 1-[3-({3-[(6-amino-1H-pyrazolo[3,4-d]pyrimidin-4-yl)amino]-3,4-dihydroquinolin-1(2H)-yl}sulfonyl)phenyl]-3-(3,4-difluorophenyl)urea], the inhibition at 10 µM was above 79% under setting [1]; above 79% under setting [2]; above 79% under setting [3]; above 79% under setting [4]; above 79% under setting [5].
As to `Nc1nc(NC2Cc3ccccc3N(S(=O)(=O)c3cccc(NC(=O)Nc4c(Cl)cccc4Cl)c3)C2)c2cn[nH]c2n1` (stereo not shown) [Compound 208, 1-[3-({3-[(6-amino-1H-pyrazolo[3,4-d]pyrimidin-4-yl)amino]-3,4-dihydroquinolin-1(2H)-yl}sulfonyl)phenyl]-3-(2,6-dichlorophenyl)urea], the inhibition at 10 µM is below 50% under setting [1]; below 50% under setting [2]; below 50% under setting [3]; below 50% under setting [4]; 50 to 79% under setting [5].
For the molecule `Nc1nc(NC2Cc3ccccc3N(S(=O)(=O)c3cccc(NC(=O)Nc4ccc(C(F)(F)F)cc4)c3)C2)c2cn[nH]c2n1` (stereo not shown) [Compound 209, 1-[3-({3-[(6-amino-1H-pyrazolo[3,4-d]pyrimidin-4-yl)amino]-3,4-dihydroquinolin-1(2H)-yl}sulfonyl)phenyl]-3-[4-(trifluoromethyl)phenyl]urea], the inhibition at 10 µM reads like this: under setting [1], above 79%; under setting [2], above 79%; under setting [3], above 79%; under setting [4], above 79%; under setting [5], above 79%.
For the molecule `Nc1nc(NC2Cc3ccccc3N(S(=O)(=O)c3cccc(NC(=O)NCc4ccccc4)c3)C2)c2cn[nH]c2n1` (stereo not shown) [Compound 210, 1-[3-({3-[(6-amino-1H-pyrazolo[3,4-d]pyrimidin-4-yl)amino]-3,4-dihydroquinolin-1(2H)-yl}sulfonyl)phenyl]-3-benzylurea], the inhibition at 10 µM under setting [1] is below 50%; the inhibition at 10 µM under setting [2] was below 50%; the inhibition at 10 µM under setting [3] is below 50%; the inhibition at 10 µM under setting [4] is below 50%; the inhibition at 10 µM under setting [5] is below 50%.
For `Nc1nc(NC2Cc3ccccc3N(S(=O)(=O)c3cccc(NC(=O)Nc4cccc(Cl)c4Cl)c3)C2)c2cn[nH]c2n1` (stereo not shown) [Compound 211, 1-[3-({3-[(6-amino-1H-pyrazolo[3,4-d]pyrimidin-4-yl)amino]-3,4-dihydroquinolin-1(2H)-yl}sulfonyl)phenyl]-3-(2,3-dichlorophenyl)urea], the inhibition at 10 µM runs as follows: under setting [1], above 79%; under setting [2], above 79%; under setting [3], above 79%; under setting [4], above 79%; under setting [5], above 79%.
Turning to `Nc1nc(NC2Cc3ccccc3N(S(=O)(=O)c3cccc(NC(=O)Nc4ccc5ccccc5c4)c3)C2)c2cn[nH]c2n1` (stereo not shown) [Compound 212, 1-[3-({3-[(6-amino-1H-pyrazolo[3,4-d]pyrimidin-4-yl)amino]-3,4-dihydroquinolin-1(2H)-yl}sulfonyl)phenyl]-3-(2-naphthyl)urea], the inhibition at 10 µM reads like this: under setting [1], above 79%; under setting [2], above 79%; under setting [3], above 79%; under setting [4], above 79%; under setting [5], above 79%.
Regarding `Cc1ccccc1NC(=O)Nc1cccc(S(=O)(=O)N2CC(Nc3nc(N)nc4[nH]ncc34)Cc3ccccc32)c1` (stereo not shown) [Compound 213, 1-[3-({3-[(6-amino-1H-pyrazolo[3,4-d]pyrimidin-4-yl)amino]-3,4-dihydroquinolin-1(2H)-yl}sulfonyl)phenyl]-3-(2-methylphenyl)urea], the inhibition at 10 µM is below 50% under setting [1]; above 79% under setting [2]; below 50% under setting [3]; below 50% under setting [4]; 50 to 79% under setting [5].
With `Nc1nc(NC2Cc3ccccc3N(S(=O)(=O)c3cccc(NC(=O)Nc4ccc5c(c4)CCC5)c3)C2)c2cn[nH]c2n1` (stereo not shown) [Compound 214, 1-[3-({3-[(6-amino-1H-pyrazolo[3,4-d]pyrimidin-4-yl)amino]-3,4-dihydroquinolin-1(2H)-yl}sulfonyl)phenyl]-3-(2,3-dihydro-1H-inden-5-yl)urea], the inhibition at 10 µM reads like this: under setting [1], above 79%; under setting [2], above 79%; under setting [3], above 79%; under setting [4], 50 to 79%; under setting [5], above 79%.
In the case of `Nc1nc(NC2Cc3ccccc3N(S(=O)(=O)c3cccc(NC(=O)Nc4ccccc4F)c3)C2)c2cn[nH]c2n1` (stereo not shown) [Compound 215, 1-[3-({3-[(6-amino-1H-pyrazolo[3,4-d]pyrimidin-4-yl)amino]-3,4-dihydroquinolin-1(2H)-yl}sulfonyl)phenyl]-3-(2-fluorophenyl)urea], the inhibition at 10 µM under setting [4] was below 50%.
For `Nc1nc(NC2Cc3ccccc3N(S(=O)(=O)c3cccc(NC(=O)Nc4cc(F)cc(C(F)(F)F)c4)c3)C2)c2cn[nH]c2n1` (stereo not shown) [Compound 217, 1-[3-({3-[(6-amino-1H-pyrazolo[3,4-d]pyrimidin-4-yl)amino]-3,4-dihydroquinolin-1(2H)-yl}sulfonyl)phenyl]-3-[3-fluoro-5-(trifluoromethyl)phenyl]urea], the inhibition at 10 µM is above 79% under setting [1]; above 79% under setting [2]; above 79% under setting [3]; above 79% under setting [4]; above 79% under setting [5].
